Values after ≈ are worked out from the molar mass of the structure shown. Values joined by “and” are separate entries in the source; they are usually repeats but may differ in a detail not shown here. Equal values may be shown once. Read-outs that look alike come from different tables or passages of the source.
Assays:
[1] = Stability of navoximod in human plasma; format: in vitro ADME; conditions: five freeze–thaw cycles; at least 110 days at −10°C to −30°C and −60°C to −80°C; 24 h at room temperature
[2] = system: UGTs; conditions: ref unpublished results; cited from earlier work
[3] = format: in vivo, human
[4] = format: in vivo, human; remark: listed apart in the source
[5] = Safety assessments in Parts 1 and 2; format: in vivo, human; conditions: both parts, healthy volunteers
[6] = Part 2 mass balance; format: in vivo, human
[7] = Solubility in water and other physiological relevant media; format: physicochemical
[8] = system: tumour growth; conditions: in combination with anti‐PD‐L1, preclinical models; cited from earlier work
[9] = cited from earlier work
[10] = Part 2, oral 200 mg/600 μCi [14C]-navoximod

In the case of `O[C@H](C[C@H]1c2c(F)cccc2-c2cncn21)[C@H]1CC[C@H](O)CC1` [navoximod], the “stability in human plasma” value [1] is listed as “stable”, the “major UGTs responsible for navoximod metabolism” value [2] is listed as “UGT1A9 and 2B7” and the AUC(0-t) ([3]; human, plasma, oral, 200 mg) is listed as 4.4 µM·h. For the same compound, the “Total (urine + feces) % of dose” value ([3]; mean of eight subjects, oral 200 mg/600 μCi [14C]-navoximod) was 5.45 % of dose, the “Plasma % of TRA (share of total drug-derived exposure)” value ([3]; pooled 0–48 h plasma, n = 8, adjusted with extraction recovery, oral 200 mg/600 μCi [14C]-navoximod) was 7.00% and the “Feces % of dose” value ([3]; pooled faeces, mean of eight subjects, oral 200 mg/600 μCi [14C]-navoximod) was 3.79 % of dose. The “Urine % of dose” value ([3]; pooled urine, mean of eight subjects, oral 200 mg/600 μCi [14C]-navoximod) was 1.66 % of dose, the “total IV clearance relative to blood flow” value ([4]; IV 5 mg) was ~ 71 % of blood flow and the “CL/F (apparent oral clearance)” value ([4]; Part 1, healthy volunteers, oral 200 mg tablet, fasted, n = 16, geometric mean (geometric CV%)) was 112 L/h and 112 (31.4) L/h. For the same compound, the AUC(0-inf) ([4]; human, plasma, iv, 5 mg) was 80.6 ng·h/mL, the AUC(0-t) ([4]; human, plasma, iv, 5 mg) was 79.1 ng·h/mL and the Cmax ([4]; human, plasma, iv, 5 mg) was 114 ng/mL. The Tmax ([4]; human, plasma, iv, 5 mg) was 5 min, the Vd ([4]; human, plasma, iv, 5 mg) was 1120 L and the clearance ([4]; human, plasma, iv, 5 mg) was 1030 mL/min. The half-life ([4]; human, plasma, iv, 5 mg) was 12.6 h, the bioavailability ([4]; human, plasma, oral, 200 mg) was 55.5% and the AUC(0-inf) ([4]; human, plasma, po, 200 mg) was 1790 ng·h/mL. It also gave an AUC(0-t) ([4]; human, plasma, po, 200 mg) of 1770 ng·h/mL, a Cmax ([4]; human, plasma, po, 200 mg) of 683 ng/mL and a Vd/F ([4]; human, plasma, po, 200 mg) of 1780 L. For the same compound, the half-life ([4]; human, plasma, po, 200 mg) was 11 h, the tolerability ([5]; all IV (5 mg) and oral (200 mg) doses) was “generally well tolerated” and the “severity of adverse events” value ([5]; all IV and oral doses) was “mild”. The “recovery of total radioactivity in urine” value ([6]; % of administered dose, mean (± SD), oral 200 mg/600 μCi [14C]-navoximod) was 80.4%, the “navoximod as share of plasma total radioactivity, geometric mean AUC0‐∞ ratio” value [6, 10] was 4.21% and the “navoximod as share of plasma total radioactivity, geometric mean C max ratio” value [6, 10] was 10.6%. For the same compound, the “geometric mean whole blood to plasma AUC0‐∞ ratio for total radioactivity” value ([6]; Part 2, total radioactivity (parent and metabolites)) was 0.965, the Fh ([6]; assuming Fg = 1) was “approximately 0.66” and the extrahepatic clearance ([6]; estimated) was 31.2 L/h. The “total radioactivity recovered in excreta within the first 72 h” value ([6]; first 72 h, oral 200 mg/600 μCi [14C]-navoximod) was 85.0%, the “Fh * Fg” value ([6]; from F and Fa) was 0.66 and the AUC(0-inf) ([6]; human, plasma, po, 200 mg) was 1540 ng·h/mL. The AUC(0-t) ([6]; human, plasma, po, 200 mg) was 1510 ng·h/mL, the Cmax ([6]; human, plasma, po, 200 mg) was 464 ng/mL and the Vd/F ([6]; human, plasma, po, 200 mg) was 1680 L. For the same compound, the half-life ([6]; human, plasma, po, 200 mg) was 9.41 h, the CL renal ([6]; human, urine and plasma, oral, 200 mg) was 20.3 mL/min and the “hepatic clearance (CLhep = [1 − Fh] * Qh)” value ([6]; in vivo) was 29.6 L/h. The “fraction of metabolism (fm)” value ([6]; oral 200 mg) was 0.98, the “hepatic first pass extraction” value ([6]; oral 200 mg) was ~ 34% and the “fraction of the dose absorbed (Fa)” value ([6]; sum of radioactivity in urine and metabolites in faeces, as fraction) was 0.841. For the same compound, the solubility [7] was 200 mg/mL (≈ 632 mM), the “effect on tumour growth” value [8] was “inhibits tumour growth compared to either treatment alone” and the mean accumulation index ([9]; BID dosing) was “approximately 1.7”. The “half‐life” value ([9]; clinical studies, monotherapy or with atezolizumab) was “approximately 12 hours”, the “dose proportionality of exposure” value ([9]; dose range of 50–1000 mg) was “dose‐proportional increases in exposure” and the “tolerability of single and twice daily oral doses” value ([9]; monotherapy, up to 1000 mg, cancer patients) was “well tolerated”.

Reference: paper PMC6624388 (British Journal of Clinical Pharmacology, 2019)
